Measured values as given in US5158939A, “Method of stimulating the immune systems of animals and compositions useful therefor” (priority 1990, dated 1992).
Entries after “also recorded” stand apart in the source; their conditions may differ. Read-outs that look alike come from different tables or passages of the source.

What was measured:
[1] = system: peritoneal macrophages; test: Induction of IL-1 in thioglycollate-elicited peritoneal macrophages (comitogenic thymocyte assay); format: cell-based, BDF1 mice; conditions: for induction of IL-1 release: DPLA alone 0.1, 1.0, 10 μg/ml
Description: 1L-1 assay--Peritoneal exudate cells were harvested from BDF1 mice 48 h after an intraperitoneal injection of thioglycollate. […] Macrophages were either pretreated with R. sphaeroides DPLA (0.1-10 μg/ml) followed by the addition of toxic Re LPS (0.1 μg) after 2 h, or immediately stimulated with Re LPS (0.01-1.00 μg/ml). Control wells were treated with 10 μl of media containing 0.5% triethylamine. Cultures were incubated at 37° C. in the presence of 5% CO2 for 18 h at which time the supernatants were collected and frozen at -20° C. until assayed. 1L-1 activity was determined by the comitogenic thymocyte assay.^25
Peritoneal exudate cells were harvested from BDF1 mice 48 h after an intraperitoneal injection of thioglycollate as described previously (Lederer and Czuprynki). Macrophages were either pretreated with R. sphaeroides DPLA (0.1-10 μg/ml) followed by addition of toxic ReLPS (0.1 μg), or immediately stimulated with ReLPS (0.01-1.00 μg/ml). Control wells were treated with 10 μl of media with 0.5% triethylamine. Cultures were incubated at 37° C. in the presence of 5% CO2 for 18 h at which time the supernatants were collected and frozen at -20° C. until assayed.
ReLPS was added to the culture 2 h after adding the R. sphaeroides DPLA. […] Standard deviation in CPM are given in parentheses.

[2] = system: 70Z/3 cells; format: cell-based
Description: ^1 Corrected for background of 5% fluorescence.
^2 The DPLA stimulated 7OZ/3 preB cells to the extent of from 2.5-6.0
fluorescence at concentrations of 1.0-10 mg/ml. In the competitive
inhibition experiment, the cells were first exposed to DPLA for 2 hours
before adding the ReLPS. In all experiments, the ReLPS and DPLA were
complexed with bovine serum albumin.
In this experiment, 0.1 μg/ml of ReLPS and 3.0 μg/ml of DPLA were
^1 The time of pre/post treatment of 7OZ/3 cells with DPLA relative t
the time of addition of ReLPS are indicated.

[3] = system: chick embryo; test: Chick embryo lethality test; format: in vivo
Description: It was characterized as the tetramethyl derivative by plasma desorption mass spectrometry. It is nontoxic based on the chick embryo lethality test (CELD50 >20 μg), and its structure is shown in Formula II.

[4] = system: serum TNF; test: Serum TNF rise after E. coli LPS in mice; format: in vivo; conditions: RsDPLA 100 μg and 1 mg, 60 and 90 min before E. coli LPS 1 μg and 5 μg i.p.
[5] = system: mice; test: LD50 in galactosamine-sensitized mice; format: in vivo
Description: Although the diphospholipids from E. coli and Salmonella strains are highly toxic, DPLA having the structure of the diphosphoryllipid A from R. sphaeroides is not. The LD50 of DPLA in galactosamine--sensitized mice was greater than 20 mg/kg.

[6] = Toxicity / endotoxic activity (general statements); conditions: in words
[7] = system: RAW 264.7 murine macrophage cells; conditions: as reported; cited from earlier work

CCCCCCC=CCCCCCC(=O)OC(CCCCCCCCCCC)CC(=O)NC1C(OCC2OC(OP(=O)(O)O)C(NC(=O)CC(=O)CCCCCCCCCCC)C(OC(=O)CC(O)CCCCCCC)C2O)OC(CO)C(OP(=O)(O)O)C1OC(=O)CC(O)CCCCCCC (stereo not shown) [DPLA]
IL-1 induction, CPM ([1]; DPLA alone 10.0 μg/ml, SD in parentheses): 3,764 (785) CPM | induction of IL-1 release ([1]; in words): unable to induce interleukin-1 release; also recorded: no IL-1/releasing activity | induction of IL-1 release ([1]; in words, listed as pentaacyl DPLA): unable to induce 1L-1 | blocking of ReLPS-induced IL-1 release ([1]; in words): blocked this activity by toxic deep rough chemotype LPS; also recorded: antogonize the induction of IL-1 release by toxic Re LPS; also recorded: blocked the release of IL-1 | Activation (% fluorescence) ([2]; Table 4, DPLA 0.1 μg/ml 2 h before ReLPS 0.1 μg/ml): 52 % fluorescence | Activation (% fluorescence) ([2]; Table 4, DPLA 0.3 μg/ml 2 h before ReLPS 0.1 μg/ml): 45 % fluorescence | Activation (% fluorescence) ([2]; Table 4, DPLA 1.0 μg/ml 2 h before ReLPS 0.1 μg/ml): 26.5 % fluorescence | Activation (% fluorescence) ([2]; Table 4, DPLA 3.0 μg/ml 2 h before ReLPS 0.1 μg/ml): 14 % fluorescence | Activation (% fluorescence) ([2]; Table 5, DPLA 1.0 μg/ml, ReLPS 0): 3.5 % fluorescence | Activation (% fluorescence) ([2]; Table 5, DPLA 1.0 μg/ml, ReLPS 0.1 μg/ml): 28.5 % fluorescence | Activation (% fluorescence) ([2]; Table 5, DPLA 1.0 μg/ml, ReLPS 0.3 μg/ml): 48.5 % fluorescence | Activation (% fluorescence) ([2]; Table 5, DPLA 1.0 μg/ml, ReLPS 1.0 μg/ml): 57.5 % fluorescence | Activation (% fluorescence) ([2]; Table 5, DPLA 1.0 μg/ml, ReLPS 10 μg/ml): 75.5 % fluorescence | Activation (% fluorescence) ([2]; Table 5, DPLA 3.0 μg/ml, ReLPS 0): 2.56 % fluorescence | Activation (% fluorescence) ([2]; Table 5, DPLA 3.0 μg/ml, ReLPS 0.1 μg/ml): 13.5 % fluorescence | Activation (% fluorescence) ([2]; Table 5, DPLA 3.0 μg/ml, ReLPS 0.3 μg/ml): 30 % fluorescence | Activation (% fluorescence) ([2]; Table 5, DPLA 3.0 μg/ml, ReLPS 1.0 μg/ml): 55 % fluorescence | Activation (% fluorescence) ([2]; Table 5, DPLA 3.0 μg/ml, ReLPS 10 μg/ml): 77 % fluorescence | Activation (% fluorescence) ([2]; Table 5, DPLA 10 μg/ml, ReLPS 0.1 μg/ml): 4.5 % fluorescence | Activation (% fluorescence) ([2]; Table 5, DPLA 10 μg/ml, ReLPS 0.3 μg/ml): 11 % fluorescence | Activation (% fluorescence) ([2]; Table 5, DPLA 10 μg/ml, ReLPS 1.0 μg/ml): 25 % fluorescence | Activation (% fluorescence) ([2]; Table 5, DPLA 10 μg/ml, ReLPS 10 μg/ml): 69 % fluorescence | Activation (% fluorescence) ([2]; Table 6, DPLA 3.0 μg/ml added at 0 h relative to ReLPS 0.1 μg/ml): 10.5 % fluorescence | Activation (% fluorescence) ([2]; Table 6, DPLA 3.0 μg/ml added at 2 h relative to ReLPS 0.1 μg/ml): 20 % fluorescence | Activation (% fluorescence) ([2]; Table 6, DPLA 3.0 μg/ml added at 4 h relative to ReLPS 0.1 μg/ml): 24 % fluorescence | Activation (% fluorescence) ([2]; Table 6, DPLA 3.0 μg/ml added at 6 h relative to ReLPS 0.1 μg/ml): 24.5 % fluorescence | Activation (% fluorescence) ([2]; Table 6, DPLA 3.0 μg/ml added at 8 h relative to ReLPS 0.1 μg/ml): 9.5 % fluorescence | Activation (% fluorescence) ([2]; Table 6, DPLA 3.0 μg/ml added at 16 h relative to ReLPS 0.1 μg/ml): 44 % fluorescence | Activation (% fluorescence) ([2]; Table 6, DPLA 3.0 μg/ml added at 20 h relative to ReLPS 0.1 μg/ml): 54 % fluorescence | Activation (% fluorescence) ([2]; Table 6, DPLA 3.0 μg/ml added at 24 h relative to ReLPS 0.1 μg/ml): 55.5 % fluorescence | Activation (% fluorescence) ([2]; Table 6, DPLA 3.0 μg/ml added at -2 h relative to ReLPS 0.1 μg/ml): 11 % fluorescence | antagonism of LPS-induced activation of 70Z/3 pre-B cells ([2]; in words): effective antagonist in the LPS-induced activation of 70Z/3 pre-B cells; also recorded: block LPS-inducted immunoglobulin synthesis by 70Z/3 pre-B cells | CELD50 [3]: > 20 µg | rise in serum TNF [4]: blocked a rise in serum TNF | LD50 [5]: greater than 20 mg/kg | endotoxic activity [6]: nontoxic | endotoxic activity ([6]; listed as R. sphaeroides DPLA): not endotoxic | endotoxic activity ([6]; listed as pentaacyl DPLA): lacks endotoxic activity; also recorded: no endotoxic activity | blocking of LPS-induced TNF [7]: competes successfully with toxic LPS to block the induction of TNF in a dose-dependent manner | induction of TNF [7]: fails to induce the synthesis and release of TNF by macrophages
